Columns and labels:
Type in all cases: functional, cell-based
[1] = Cytotoxicity against human LXFL 1121L cells by propidium iodide staining
[2] = Cytotoxicity against human PC3M cells by propidium iodide staining; details: PC-3M
RKO = assay: Cytotoxicity against human RKO cells by propidium iodide staining
[3] = Cytotoxicity against human LIXF 575L cells by propidium iodide staining
[4] = Cytotoxicity against human DIFI cells by propidium iodide staining
HCT-116 = assay: Cytotoxicity against human HCT116 cells by propidium iodide staining
PANC-1 = assay: Cytotoxicity against human PANC1 cells by propidium iodide staining
[5] = Cytotoxicity against human PAXF 546L cells by propidium iodide staining
[6] = Cytotoxicity against human LXFA 629L cells by propidium iodide staining
[7] = Cytotoxicity against human RXF 1781L cells by propidium iodide staining
[8] = Cytotoxicity against human PXF 1752L cells by propidium iodide staining
DU-145 = assay: Cytotoxicity against human DU145 cells by propidium iodide staining
[9] = Cytotoxicity against human CXF 269L cells by propidium iodide staining
[10] = Cytotoxicity against human PXF 698L cells by propidium iodide staining
[11] = Cytotoxicity against human MEXF 1341L cells by propidium iodide staining
MCF7 = assay: Cytotoxicity against human MCF7 cells by propidium iodide staining
TE-671 = assay: Cytotoxicity against human TE671 cells by propidium iodide staining
[12] = Cytotoxicity against human GXF251L cells by propidium iodide staining; details: GXF 251L
[13] = Cytotoxicity against human LXFA 526L cells by propidium iodide staining
CWR22R = assay: Cytotoxicity against human 22Rv1 cells by propidium iodide staining
[14] = Cytotoxicity against human MAXF 401NL cells by propidium iodide staining
[15] = Cytotoxicity against human PAXF 1657L cells by propidium iodide staining
[16] = Cytotoxicity against human BXF 1352L cells by propidium iodide staining
HT-29 = assay: Cytotoxicity against human HT-29 cells by propidium iodide staining
[17] = Cytotoxicity against human OVXF 899L cells by propidium iodide staining
[18] = Cytotoxicity against human NIH:OVCAR3 cells by propidium iodide staining; details: OVCAR-3
[19] = Cytotoxicity against human PXF 1118L cells by propidium iodide staining
[20] = Cytotoxicity against human RXF 393NL cells by propidium iodide staining
MDA-MB-231 = assay: Cytotoxicity against human MDA-MB-231 cells by propidium iodide staining
[21] = Cytotoxicity against human MEXF 462NL cells by propidium iodide staining
[22] = Cytotoxicity against human MEXF 276L cells by propidium iodide staining; details: MEXF276L
NCI-H460 = assay: Cytotoxicity against human NCI-H460 cells by propidium iodide staining
CAL-27 = assay: Cytotoxicity against human CAL27 cells by propidium iodide staining
MKN-45 = assay: Cytotoxicity against human MKN45 cells by propidium iodide staining
LNCaP = assay: Cytotoxicity against human LNCAP cells by propidium iodide staining
[23] = Cytotoxicity against human LXFL 529L cells by propidium iodide staining
SAOS-2 = assay: Cytotoxicity against human Saos2 cells by propidium iodide staining
[24] = Cytotoxicity against human RXF 486L cells by propidium iodide staining
[25] = Cytotoxicity against human LXFA 289L cells by propidium iodide staining
[26] = Cytotoxicity against human UXF 1138L cells by propidium iodide staining
[27] = Cytotoxicity against human BXF 1218L cells by propidium iodide staining
T-24 = assay: Cytotoxicity against human T24 cells by propidium iodide staining

CCCCCCCCCCCC/C=C\N(NC(=O)COC)C(=O)CCCCCCCCC [HYDRAZIDOMYCIN A]
IC50 [1]: 2.31 µM | IC50 [2]: 0.105 µM | IC50 (RKO): 0.598 µM | IC50 [3]: 0.349 µM | IC50 [4]: 0.782 µM | IC50 (HCT-116): 0.758 µM | IC50 (PANC-1): 0.933 µM | IC50 [5]: 0.66 µM | IC50 [6]: 0.247 µM | IC50 [7]: 0.982 µM | IC50 [8]: 1.19 µM | IC50 (DU-145): 0.539 µM | IC50 [9]: 0.222 µM | IC50 [10]: 0.982 µM | IC50 [11]: 0.936 µM | IC50 (MCF7): 0.782 µM | IC50 (TE-671): 0.898 µM | IC50 [12]: 0.144 µM | IC50 [13]: 1.65 µM | IC50 (CWR22R): 0.882 µM | IC50 [14]: 0.471 µM | IC50 [15]: 1.91 µM | IC50 [16]: 2.3 µM | IC50 (HT-29): 0.464 µM | IC50 [17]: 1.34 µM | IC50 [18]: 1.1 µM | IC50 [19]: 2.4 µM | IC50 [20]: 1.11 µM | IC50 (MDA-MB-231): 0.286 µM | IC50 [21]: 0.765 µM | IC50 [22]: 1.59 µM | IC50 (NCI-H460): 2.31 µM | IC50 (CAL-27): 0.716 µM | IC50 (MKN-45): 0.676 µM | IC50 (LNCaP): 0.957 µM | IC50 [23]: 2.12 µM | IC50 (SAOS-2): 1.82 µM | IC50 [24]: 1.62 µM | IC50 [25]: 1.1 µM | IC50 [26]: 0.893 µM | IC50 [27]: 2.43 µM

CCCCCCC/C=C\CCCCC/C=C\N(NC(=O)COC)C(=O)CCCCCCCCC [HYDRAZIDOMYCIN B]
IC50 [1]: 17.4 µM | IC50 [2]: 1.73 µM | IC50 (RKO): 13.8 µM | IC50 [3]: 7.39 µM | IC50 [4]: 10.2 µM | IC50 (HCT-116): 19.4 µM | IC50 (PANC-1): 10 µM | IC50 [5]: 10.8 µM | IC50 [6]: 1.41 µM | IC50 [7]: 10.2 µM | IC50 [8]: 12.7 µM | IC50 (DU-145): 7.22 µM | IC50 [9]: 5.94 µM | IC50 [10]: 14.3 µM | IC50 [11]: 14.9 µM | IC50 (MCF7): 11 µM | IC50 (TE-671): 18.2 µM | IC50 [12]: 1.54 µM | IC50 [13]: 7.07 µM | IC50 (CWR22R): 15.6 µM | IC50 [14]: 0.876 µM | IC50 [15]: 20.4 µM | IC50 [16]: 15.1 µM | IC50 (HT-29): 6.54 µM | IC50 [17]: 19.1 µM | IC50 [18]: 18.5 µM | IC50 [19]: 30 µM | IC50 [20]: 11 µM | IC50 (MDA-MB-231): 5.53 µM | IC50 [21]: 20.4 µM | IC50 [22]: 18.3 µM | IC50 (NCI-H460): 17.2 µM | IC50 (CAL-27): 12.7 µM | IC50 (MKN-45): 11.6 µM | IC50 (T-24): 9.19 µM | IC50 (LNCaP): 14.1 µM | IC50 [23]: 17.3 µM | IC50 (SAOS-2): 18 µM | IC50 [24]: 21.2 µM | IC50 [25]: 12.6 µM | IC50 [26]: 18.2 µM | IC50 [27]: 19.3 µM

— ChEMBL document CHEMBL1833908, “Hydrazidomycins, cytotoxic alkylhydrazides from Streptomycesatratus” (Bioorg Med Chem Lett, 2011)
